Source: PubChem BioAssay (NCI)
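Values below derive from 48-hour exposures of cells grown in 96-well plates, with endpoints linearly interpolated between the two concentrations bracketing the appropriate inhibition level. TGI marks complete inhibition of growth.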

Experiments:
Test in all cases: NCI anticancer screen, dose series, 48 h
786-0 renal = test system: 786-0 renal
A498 renal = test system: A498 renal
A549 NSCLC = test system: A549 NSCLC
ACHN renal = test system: ACHN renal
BT-549 breast = test system: BT-549 breast
CCRF-CEM leukemia = test system: CCRF-CEM leukemia
COLO 205 colon = test system: COLO 205 colon
DU-145 prostate = test system: DU-145 prostate
EKVX NSCLC = test system: EKVX NSCLC
HCT-116 colon = test system: HCT-116 colon
HCT-15 colon = test system: HCT-15 colon
HL-60(TB) leukemia = test system: HL-60(TB) leukemia
HOP-62 NSCLC = test system: HOP-62 NSCLC
HOP-92 NSCLC = test system: HOP-92 NSCLC
HS 578T breast = test system: HS 578T breast
HT29 colon = test system: HT29 colon
IGROV1 ovarian = test system: IGROV1 ovarian
K-562 leukemia = test system: K-562 leukemia
KM12 colon = test system: KM12 colon
LOX IMVI melanoma = test system: LOX IMVI melanoma
M14 melanoma = test system: M14 melanoma
MALME-3M melanoma = test system: MALME-3M melanoma
MCF7 breast = test system: MCF7 breast
MDA-MB-231 breast = test system: MDA-MB-231 breast
MDA-MB-435 = test system: MDA-MB-435
MDA-N = test system: MDA-N
MOLT-4 leukemia = test system: MOLT-4 leukemia
NCI-H226 lung = test system: NCI-H226 lung
NCI-H460 lung = test system: NCI-H460 lung
NCI-H522 lung = test system: NCI-H522 lung
NCI/ADR-RES ovarian = test system: NCI/ADR-RES ovarian
OVCAR-3 ovarian = test system: OVCAR-3 ovarian
OVCAR-4 ovarian = test system: OVCAR-4 ovarian
OVCAR-5 ovarian = test system: OVCAR-5 ovarian
OVCAR-8 ovarian = test system: OVCAR-8 ovarian
PC-3 prostate = test system: PC-3 prostate
RPMI-8226 leukemia = test system: RPMI-8226 leukemia
RXF 393 renal = test system: RXF 393 renal
SF-295 CNS = test system: SF-295 CNS
SF-539 CNS = test system: SF-539 CNS
SK-MEL-2 melanoma = test system: SK-MEL-2 melanoma
SK-MEL-28 melanoma = test system: SK-MEL-28 melanoma
SK-MEL-5 melanoma = test system: SK-MEL-5 melanoma
SK-OV-3 ovarian = test system: SK-OV-3 ovarian
SN12C renal = test system: SN12C renal
SNB-19 CNS = test system: SNB-19 CNS
SW-620 colon = test system: SW-620 colon
T-47D breast = test system: T-47D breast
TK-10 renal = test system: TK-10 renal
U251 CNS = test system: U251 CNS
UACC-257 melanoma = test system: UACC-257 melanoma
UACC-62 melanoma = test system: UACC-62 melanoma
UO-31 renal = test system: UO-31 renal
CAKI-1 renal = test system: CAKI-1 renal
HCC-2998 colon = test system: HCC-2998 colon
NCI-H23 lung = test system: NCI-H23 lung
SF-268 CNS = test system: SF-268 CNS

N#CCCN(CCC#N)c1ccc(/C=C2\N=C(c3ccccc3)N(c3ccccc3)C2=O)cc1
TGI (786-0 renal): > 100 µM | TGI (A498 renal): > 100 µM | TGI (A549 NSCLC): > 100 µM | TGI (ACHN renal): > 100 µM | TGI (BT-549 breast): > 100 µM | TGI (CCRF-CEM leukemia): > 100 µM | TGI (COLO 205 colon): > 100 µM | TGI (DU-145 prostate): > 100 µM | TGI (EKVX NSCLC): > 100 µM | TGI (HCT-116 colon): > 100 µM | TGI (HCT-15 colon): > 100 µM | TGI (HL-60(TB) leukemia): > 100 µM | TGI (HOP-62 NSCLC): > 100 µM | TGI (HOP-92 NSCLC): > 100 µM | TGI (HS 578T breast): 87.6 µM | TGI (HT29 colon): > 100 µM | TGI (IGROV1 ovarian): > 100 µM | TGI (K-562 leukemia): > 100 µM | TGI (KM12 colon): > 100 µM | TGI (LOX IMVI melanoma): > 100 µM | TGI (M14 melanoma): > 100 µM | TGI (MALME-3M melanoma): > 100 µM | TGI (MCF7 breast): > 100 µM | TGI (MDA-MB-231 breast): > 100 µM | TGI (MDA-MB-435): > 100 µM | TGI (MDA-N): > 100 µM | TGI (MOLT-4 leukemia): > 100 µM | TGI (NCI-H226 lung): > 100 µM | TGI (NCI-H460 lung): > 100 µM | TGI (NCI-H522 lung): > 100 µM | TGI (NCI/ADR-RES ovarian): > 100 µM | TGI (OVCAR-3 ovarian): > 100 µM | TGI (OVCAR-4 ovarian): > 100 µM | TGI (OVCAR-5 ovarian): > 100 µM | TGI (OVCAR-8 ovarian): > 100 µM | TGI (PC-3 prostate): > 100 µM | TGI (RPMI-8226 leukemia): > 100 µM | TGI (RXF 393 renal): > 100 µM | TGI (SF-295 CNS): > 100 µM | TGI (SF-539 CNS): > 100 µM | TGI (SK-MEL-2 melanoma): > 100 µM | TGI (SK-MEL-28 melanoma): > 100 µM | TGI (SK-MEL-5 melanoma): > 100 µM | TGI (SK-OV-3 ovarian): > 100 µM | TGI (SN12C renal): > 100 µM | TGI (SNB-19 CNS): > 100 µM | TGI (SW-620 colon): > 100 µM | TGI (T-47D breast): > 100 µM | TGI (TK-10 renal): > 100 µM | TGI (U251 CNS): > 100 µM | TGI (UACC-257 melanoma): > 100 µM | TGI (UACC-62 melanoma): > 100 µM | TGI (UO-31 renal): > 100 µM

COc1cc(N(CCC#N)CCC#N)ccc1/C(N=Nc1cccc(C)c1)=N\NC(=O)c1ccc(C)cc1
TGI (786-0 renal): > 100 µM | TGI (A498 renal): 44.1 µM | TGI (A549 NSCLC): > 100 µM | TGI (ACHN renal): 63 µM | TGI (BT-549 breast): > 100 µM | TGI (CAKI-1 renal): > 100 µM | TGI (CCRF-CEM leukemia): > 100 µM | TGI (COLO 205 colon): > 100 µM | TGI (DU-145 prostate): > 100 µM | TGI (EKVX NSCLC): > 100 µM | TGI (HCC-2998 colon): > 100 µM | TGI (HCT-116 colon): > 100 µM | TGI (HCT-15 colon): > 100 µM | TGI (HL-60(TB) leukemia): > 100 µM | TGI (HOP-62 NSCLC): > 100 µM | TGI (HOP-92 NSCLC): > 100 µM | TGI (HS 578T breast): > 100 µM | TGI (HT29 colon): > 100 µM | TGI (IGROV1 ovarian): > 100 µM | TGI (K-562 leukemia): > 100 µM | TGI (KM12 colon): > 100 µM | TGI (LOX IMVI melanoma): > 100 µM | TGI (M14 melanoma): > 100 µM | TGI (MALME-3M melanoma): > 100 µM | TGI (MCF7 breast): > 100 µM | TGI (MDA-MB-231 breast): > 100 µM | TGI (MDA-MB-435): > 100 µM | TGI (MDA-N): > 100 µM | TGI (MOLT-4 leukemia): > 100 µM | TGI (NCI-H226 lung): > 100 µM | TGI (NCI-H23 lung): > 100 µM | TGI (NCI-H460 lung): > 100 µM | TGI (NCI-H522 lung): > 100 µM | TGI (NCI/ADR-RES ovarian): > 100 µM | TGI (OVCAR-3 ovarian): > 100 µM | TGI (OVCAR-4 ovarian): > 100 µM | TGI (OVCAR-5 ovarian): > 100 µM | TGI (OVCAR-8 ovarian): > 100 µM | TGI (PC-3 prostate): > 100 µM | TGI (RPMI-8226 leukemia): > 100 µM | TGI (RXF 393 renal): > 100 µM | TGI (SF-268 CNS): > 100 µM | TGI (SF-295 CNS): > 100 µM | TGI (SK-MEL-2 melanoma): > 100 µM | TGI (SK-MEL-28 melanoma): > 100 µM | TGI (SK-MEL-5 melanoma): > 100 µM | TGI (SK-OV-3 ovarian): > 100 µM | TGI (SN12C renal): > 100 µM | TGI (SNB-19 CNS): > 100 µM | TGI (SW-620 colon): > 100 µM | TGI (T-47D breast): > 100 µM | TGI (TK-10 renal): > 100 µM | TGI (U251 CNS): > 100 µM | TGI (UACC-257 melanoma): > 100 µM | TGI (UACC-62 melanoma): > 100 µM | TGI (UO-31 renal): > 100 µM
